The text below walks through data of patent publication US20130217672A1, “(+)-3-HYDROXYMORPHINAN-BASED POLYCYCLE DERIVATIVES” (GREEN CROSS CORPORATION, priority 2010, published 2013).

The subject of data set [1] is dopamine (DA) neurons in substantia nigra pars compacta. The note with it: MPTP model, daily injections; cited from earlier work.
Data set [2] deals with HT22 cells (mouse hippocampal neuron). Nature of the data set: Cell cytotoxicity test: HT22 cells co-treated with 5 mM glutamate and compound, MTT readout. The format is cell-based. The note with it: Mus musculus, HT-22, five millimolar glutamate co-treated, 24 h, read-out: EC50: neuroprotective effect against glutamate toxicity. The method, then:
(§1) HT22 cells (mouse hippocampal neuron, Salk Institute and KRIBB) were placed in a 96-well plate 3×10^3 cells/well for 16 h before treatment. Five millimolar glutamate and the inventive compounds were co-treated and incubated for 24 h in growth media (DMEM with 10% FBS and 1% penicillin streptomycin). MTT (3-(4,5-dimethylthazol-2-yl)-2,5-diphenyltetrazolium bromide, Sigma®) was treated for 4 h and detected with a plate reader at a wavelength=450 nm [Da-Qing, et. al., Anti-oxidant and anti-inflammatory activities of macelignan in murine hippocampal cell line and primary culture of rat microglia cells, BBRC, 2005, 331, 1264-1269].
(§2) The EC50 values were statistically analyzed using Prism® (GraphPad Software Inc., San Diego, Calif.). The results of the cell cytotoxicity test are summarized in Table 1 (EC50: neuroprotective effect against glutamate toxicity, and CC50: cytotoxicity of compound).

Assay in data set [3]: as above
The format is cell-based, mouse. The note with it: mouse, HT22 cells (mouse hippocampal neuron). As to the method:
as §1, §2

Structures can show the parent of a compound that is named as a salt.

By EC50 is commonly meant the midpoint of the concentration-response curve. As usually defined, the CC50 is the concentration at which the toxic effect on the cells reaches its halfway point.

Consider `Oc1ccc2c(c1)[C@@]13CCCC[C@H]1[C@@H](C2)NCC3` [(+)-3-HM, (+)-3-hydroxymorphinan], for which, in data set [1], the “DA levels in striatum” value is on record as “restored” and the “DA neurons in substantia nigra pars compacta” value is recorded as “protected”.
Consider `Oc1cc2c(c3c1OCCN3)C[C@@H]1NCC[C@]23CCCC[C@H]13` [Example 1, (6S,6aS,10aS)-2,3,4,5,6,6a,7,8,9,10-Decahydro-6,10a-(epiminoethano)phenanthro[2,1-b][1,4]oxazin-12-ol TFA salt], for which, in data set [2], the EC50 is 26.9 µM. For the same molecule, the 50% cytotoxic concentration (CC50) at 24 h in data set [3] was over 100 µM.
On the same counts, the results for `Oc1cc2c(c3c1OCCCN3)C[C@@H]1NCC[C@]23CCCC[C@H]13` [Example 2, (7S,7aS,11aS)-3,4,5,6,7,7a,8,9,10,11-Decahydro-2H-7,11a-(epiminoethano)phenanthro[2,1-b][1,4]oxazepin-13-ol TFA salt] are 27.7 µM and over 100 µM.
As to `CC(=O)N1CCOc2c(O)cc3c(c21)C[C@@H]1NCC[C@]32CCCC[C@H]12` [Example 3, 1-((6S,6aS,10aS)-12-Hydroxy-2,3,6,6a,7,8,9,10-octahydro-6,10a-(epiminoethano)phenanthro[2,1-b][1,4]oxazin-4(5H)-yl)ethanone TFA salt], the EC50 in data set [2] came to 8.5 µM. The CC50 at 24 h in data set [3] is over 100 µM.
On the same counts, the results for `CN1CCOc2c(O)cc3c(c21)C[C@@H]1NCC[C@]32CCCC[C@H]12` [Example 4, (6S,6aS,10aS)-4-Methyl-2,3,4,5,6,6a,7,8,9,10-decahydro-6,10a-(epiminoethano)phenanthro[2,1-b][1,4]oxazin-12-ol TFA salt] are 9.6 µM and over 100 µM.
With `Oc1cc2c(c3c1OCCO3)C[C@@H]1NCC[C@]23CCCC[C@H]13` [Example 5, (6S,6aS,10aS)-3,5,6,6a,7,8,9,10-Octahydro-2H-6,10a-(epiminoethano)phenanthro[1,2-b][1,4]dioxin-12-ol TFA salt], in data set [2], the EC50 was 4.97 µM. Moreover, the CC50 at 24 h in data set [3] is over 100 µM.
Regarding `CC1COc2c3c(cc(O)c2N1)[C@]12CCCC[C@@H]1[C@H](C3)NCC2` (stereo partly drawn) [Example 6, (6S,6aS,10aS)-2-Methyl-1,2,3,5,6,6a,7,8,9,10-decahydro-6,10a-(epiminoethano)phenanthro[1,2-b][1,4]oxazin-12-ol TFA salt], in data set [2], the EC50 amounted to 0.314 µM. Further, the CC50 at 24 h in data set [3] was over 100 µM.
The like results for `Oc1cc2c(c3c1NCCO3)C[C@@H]1NCC[C@]23CCCC[C@H]13` [Example 7, (6S,6aS,10aS)-1,2,3,5,6,6a,7,8,9,10-Decahydro-6,10a-(epiminoethano)phenanthro[1,2-b][1,4]oxazin-12-ol TFA salt] were, in that order, 0.65 µM and 13.5 µM.
With `Oc1cc2c(c3c1NC(c1ccccc1)CO3)C[C@@H]1NCC[C@]23CCCC[C@H]13` (stereo partly drawn) [Example 8, (6S,6aS,10aS)-2-Phenyl-1,2,3,5,6,6a,7,8,9,10-decahydro-6,10a-(epiminoethano)phenanthro[1,2-b][1,4]oxazin-12-ol TFA salt], the EC50 in data set [2] was found to be 0.457 µM. In data set [3], the CC50 at 24 h amounted to 8.1 µM.
`Oc1cc2c(c3nccnc13)C[C@@H]1NCC[C@]23CCCC[C@H]13` [Example 9, (6S,6aS,10aS)-6,6a,7,8,9,10-Hexahydro-5H-6,10a-(epiminoethano)naphtho[2,1-f]quinoxalin-12-ol TFA salt]: the EC50 in data set [2] stood at 16.3 µM. Further, the CC50 at 24 h in data set [3] came to 44.8 µM.
The like results for `Oc1cc2c(c3nc4ccccc4nc13)C[C@@H]1NCC[C@]23CCCC[C@H]13` [Example 10, (4aS,14S,14aS)-2,3,4,13,14,14a-Hexahydro-1H-14,4a-(epiminoethano)naphtho[2,1-a]phenazin-6-ol TFA salt] were, in that order, 0.354 µM and 10.7 µM.
On the same counts, the results for `Oc1cccc2c1[nH]c1c(O)cc3c(c12)C[C@@H]1NCC[C@]32CCCC[C@H]12` [Example 11, (4aS,13S,13aS)-1,2,3,4,7,12,13,13a-Octahydro-13,4a-(epiminoethano)naphtho[1,2-c]carbazole-6,8-diol TFA salt] are 0.303 µM and 44 µM.
The like results for `Oc1cc2c(c3c1[nH]c1ccccc13)C[C@@H]1NCC[C@]23CCCC[C@H]13` [Example 12, (4aS,13S,13aS)-1,2,3,4,7,12,13,13a-Octahydro-13,4a-(epiminoethano)naphtho[1,2-c]carbazol-6-ol TFA salt] were, in that order, 0.71 µM and 49.8 µM.
Regarding `Oc1ccc2[nH]c3c(O)cc4c(c3c2c1)C[C@@H]1NCC[C@]42CCCC[C@H]12` [Example 13, (4aS,13S,13aS)-1,2,3,4,7,12,13,13a-Octahydro-13,4a-(epiminoethano)naphtho[1,2-c]carbazole-6,10-diol TFA salt], the EC50 in data set [2] turned out to be 1.11 µM. In data set [3], the cytotoxic concentration (CC50) at 24 h was over 100 µM.
With `Cc1ccc2[nH]c3c(O)cc4c(c3c2c1)C[C@@H]1NCC[C@]42CCCC[C@H]12` [Example 14, (4aS,13S,13aS)-10-Methyl-1,2,3,4,7,12,13,13a-octahydro-13,4a-(epiminoethano)naphtho[1,2-c]carbazol-6-ol TFA salt], the EC50 in data set [2] is 0.908 µM. The CC50 at 24 h in data set [3] was 5.7 µM.
